Assay results as given in patent publication US9546157B2, “Asymmetric piperidinyl-substituted ureas as medicines” (Helsinn Healthcare SA, priority 2014, dated 2017).

Columns and labels:
[1] = biological target: T1, GHSR1a (Homo sapiens, UniProt Q92847); experiment: Calcium FLIPR assay, GHSR-1a antagonism (reduction of ghrelin response); assay type: cell-based; settings: HEK293/GHSR1a cells, ghrelin 10 nM
T1 construct: expressed in transfected cells; host or cells: HEK293
Method: (§1) The intracellular calcium assay was carried out in a 384-well format FLIPR™ (Molecular Device) HEK293/GHSR1a cell line. Cells were seeded 24 hr prior to the experiments at an optimal density per well. Preincubation with selected calcium dye lasted for 30-60 min at room temperature or 37° C. Test compounds, dissolved in DMSO, were added at the appropriate time and incubated for 15 min followed by the addition of ghrelin with FlexStation or FLIPR. Relative fluorescence was monitored by the FLIPR™ Molecular Device. EC50 and IC50 values were estimated from dose-response data using GraphPad Prism software. To check for GHSR-1a agonism the compound was added at t=20 sec. and the calcium response was followed for 2 minutes. To check for GHSR-1a antagonism the compound and Ghrelin (10 nM) were added to the cells at t=20 sec. and the calcium response was measured for 2 minutes. The potency of the antagonist was calculated by its ability to reduce the ghrelin response. Dose-response curves were made for relevant antagonists.

[2] = biological target: T1, GHSR1a; experiment: Calcium FLIPR assay, GHSR-1a agonism; assay type: cell-based; parameters: Emax: unit not given here; settings: HEK293/GHSR1a cells
Method: as §1

T1 sequence (Q92847 whole entry): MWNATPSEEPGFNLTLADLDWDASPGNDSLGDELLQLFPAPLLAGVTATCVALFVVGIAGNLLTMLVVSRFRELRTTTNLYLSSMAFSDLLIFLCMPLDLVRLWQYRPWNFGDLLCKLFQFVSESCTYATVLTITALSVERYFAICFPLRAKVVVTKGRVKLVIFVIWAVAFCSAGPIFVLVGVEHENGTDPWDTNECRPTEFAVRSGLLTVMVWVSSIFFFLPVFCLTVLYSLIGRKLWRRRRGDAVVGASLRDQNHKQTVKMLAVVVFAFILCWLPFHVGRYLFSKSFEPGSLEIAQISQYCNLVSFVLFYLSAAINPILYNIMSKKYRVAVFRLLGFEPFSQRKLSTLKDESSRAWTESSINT

Row | IC50 [1] | EC50 [2] | Emax [2] | Compound
1 | 18 nM | 35 nM | 1690 | COC(=O)/C=C/c1ccc(C(C)NC(=O)N(C)C2CCN(C)CC2)c(Cl)c1Cl (stereo not drawn) [Compound H0641, methyl (E)-3-(2,3-dichloro-4-(1-(3-methyl-3-(1-methylpiperidin-4-yl)ureido)ethyl)phenyl)acrylate]
2 | 22 nM | 83 nM | 2660 | CC(NC(=O)N(C)C1CCN(C)CC1)c1ccc(CCCO)c(Cl)c1Cl (stereo not drawn) [Compound H0643, 3-(1-(2,3-dichloro-4-(3-hydroxypropyl)phenyl)ethyl)-1-methyl-1-(1-methylpiperidin-4-yl)urea]
3 | 133 nM | 287 nM | 2761 | CC(NC(=O)N(C)C1CCN(C)CC1)c1ccc(C2OCCO2)c(Cl)c1Cl (stereo not drawn) [Compound H0645, 3-(1-(2,3-dichloro-4-(1,3-dioxolan-2-yl)phenyl)ethyl)-1-methyl-1-(1-methylpiperidin-4-yl)urea]
4 | 541 nM | > 30000 nM |  | CC(NC(=O)N(C)C1CCN(C)CC1)c1ccc(-c2cncc(/C=N/O)c2)c(Cl)c1Cl (stereo not drawn) [Compound H0646, (E)-3-(1-(2,3-dichloro-4-(5-((hydroxyimino)methyl)pyridin-3-yl)phenyl)ethyl)-1-methyl-1-(1-methylpiperidin-4-yl)urea]
5 | 4 nM | 9 nM | 2150 | CC(NC(=O)N(C)C1CCN(C)CC1)c1ccc(-c2ccccn2)c(Cl)c1Cl (stereo not drawn) [Compound H0650, 3-(1-(2,3-dichloro-4-(pyridin-2-yl)phenyl)ethyl)-1-methyl-1-(1-methylpiperidin-4-yl)urea]
6 | 4 nM | 11 nM | 2300 | CC(NC(=O)N(C)C1CCN(C)CC1)c1ccc(-c2ccc(C=O)s2)c(Cl)c1Cl (stereo not drawn) [Compound H0651, 3-(1-(2,3-dichloro-4-(5-formylthiophen-2-yl)phenyl)ethyl)-1-methyl-1-(1-methylpiperidin-4-yl)urea]
7 | 7 nM | 5 nM | 1500 | CC(NC(=O)N(C)C1CCN(C)CC1)c1ccc(-c2ccc(C=O)s2)c(Cl)c1Cl (stereo not drawn) [Compound H0652, 3-(1-(2,3-dichloro-4-(5-formylthiophen-2-yl)phenyl)ethyl)-1-methyl-1-(1-methylpiperidin-4-yl)urea]
8 | 6 nM | 9 nM | 2400 | COc1ccc(C(C#N)NC(=O)N(C)C2CCN(C)CC2)c(Cl)c1Br (stereo not drawn) [Compound H0658, 3-((3-bromo-2-chloro-4-methoxyphenyl)(cyano)methyl)-1-methyl-1-(1-methylpiperidin-4-yl)urea]
9 | 390 nM | 353 nM | 200 | COc1ccc(C(NC(=O)N(C)C2CCN(C)CC2)C(N)=O)c(Cl)c1Br (stereo not drawn) [Compound H0659, 2-(3-bromo-2-chloro-4-methoxyphenyl)-2-(3-methyl-3-(1-methylpiperidin-4-yl)ureido)acetamide]
10 | 69 nM | 180 nM | 2100 | COC(=O)C(NC(=O)N(C)C1CCN(C)CC1)c1ccc(-c2cccs2)c(Cl)c1Cl (stereo not drawn) [Compound H0660, methyl 2-(2,3-dichloro-4-(thiophen-2-yl)phenyl)-2-(3-methyl-3-(1-methylpiperidin-4-yl)ureido)acetate]
11 | ≥ 1000 nM | > 30000 nM |  | COC(=O)C(NC(=O)N(C)C1CCN(C)CC1)c1ccc(-c2cncnc2)c(Cl)c1Cl (stereo not drawn) [Compound H0662, methyl 2-(2,3-dichloro-4-(pyrimidin-5-yl)phenyl)-2-(3-methyl-3-(1-methylpiperidin-4-yl)ureido)acetate]
12 | 274 nM | > 30000 nM |  | COc1ncc(-c2ccc(C(C)NC(=O)N(C)C3CCN(C)CC3)c(Cl)c2Cl)c(OC)n1 (stereo not drawn) [Compound H0663, 3-(1-(2,3-dichloro-4-(2,4-dimethoxypyrimidin-5-yl)phenyl)ethyl)-1-methyl-1-(1-methylpiperidin-4-yl)urea]
13 | 261 nM | > 30000 nM |  | CC(NC(=O)N(C)C1CCN(C)CC1)c1ccc(-c2sccc2CO)c(Cl)c1Cl (stereo not drawn) [Compound H0664, 3-(1-(2,3-dichloro-4-(3-(hydroxymethyl)thiophen-2-yl)phenyl)ethyl)-1-methyl-1-(1-methylpiperidin-4-yl)urea]
14 | 8 nM | 21 nM | 4927 | CN1CCC(N(C)C(=O)NC(C#N)c2ccc(-c3cncc(C#N)c3)c(Cl)c2Cl)CC1 (stereo not drawn) [Compound H0666, 3-(cyano(2,3-dichloro-4-(5-cyanopyridin-3-yl)phenyl)methyl)-1-methyl-1-(1-methylpiperidin-4-yl)urea]
15 | 8 nM | 10 nM | 2168 | CC(NC(=O)N(C)C1CCN(C)CC1)c1ccc(-c2ccc(CF)s2)c(Cl)c1Cl (stereo not drawn) [Compound H0668, 3-(1-(2,3-dichloro-4-(5-(fluoromethyl)thiophen-2-yl)phenyl)ethyl)-1-methyl-1-(1-methylpiperidin-4-yl)urea]
16 | 523000 nM | > 30000 nM |  | CN1CCC(N(C)C(=O)NC(CO)c2ccc(-c3cncnc3)c(Cl)c2Cl)CC1 (stereo not drawn) [Compound H0670, 3-(1-(2,3-dichloro-4-(pyrimidin-5-yl)phenyl)-2-hydroxyethyl)-1-methyl-1-(1-methylpiperidin-4-yl)urea]
17 | 34 nM | 60 nM | 3748 | COc1ccc(C(C)(C#N)NC(=O)N(C)C2CCN(C)CC2)c(Cl)c1Cl (stereo not drawn) [Compound H0671, 3-(1-cyano-1-(2,3-dichloro-4-methoxyphenyl)ethyl)-1-methyl-1-(1-methylpiperidin-4-yl)urea]
18 | > 1 nM | > 30000 nM |  | CN1CCC(N(C)C(=O)NC2(c3ccc(-c4cccs4)c(Cl)c3Cl)CC2)CC1 [Compound H0672, 3-(1-(2,3-dichloro-4-(thiophen-2-yl)phenyl)cyclopropyl)-1-methyl-1-(1-methylpiperidin-4-yl)urea]
19 | > 1000 nM | > 30000 nM |  | CN1CCC(N(C)C(=O)NC2(c3ccc(-c4cncnc4)c(Cl)c3Cl)CC2)CC1 [Compound H0673, 3-(1-(2,3-dichloro-4-(pyrimidin-5-yl)phenyl)cyclopropyl)-1-methyl-1-(1-methylpiperidin-4-yl)urea]
20 | 3 nM | 12 nM | 3100 | CC(=O)c1ccsc1-c1ccc(C(C)NC(=O)N(C)C2CCN(C)CC2)c(Cl)c1Cl (stereo not drawn) [Compound H0688, 3-(1-(4-(3-acetylthiophen-2-yl)-2,3-dichlorophenyl)ethyl)-1-methyl-1-(1-methylpiperidin-4-yl)urea]
21 | > 1000 nM | > 30000 nM |  | CC(NC(=O)N(C)C1CCN(C)CC1)c1ccc(-c2ccc(C(=O)O)s2)c(Cl)c1Cl (stereo not drawn) [Compound H0689, 5-(2,3-dichloro-4-(1-(3-methyl-3-(1-methylpiperidin-4-yl)ureido)ethyl)phenyl)thiophene-2-carboxylic acid]
22 | 980 nM | > 30000 nM |  | CC(=O)c1cncc(-c2ccc(C(C)NC(=O)N(C)C3CCN(C)CC3)c(Cl)c2Cl)c1 (stereo not drawn) [Compound H0690, 3-(1-(4-(5-acetylpyridin-3-yl)-2,3-dichlorophenyl)ethyl)-1-methyl-1-(1-methylpiperidin-4-yl)urea]
23 | 550 nM | > 1000 nM |  | CON(C)C(=O)c1ccc(-c2ccc(C(C)NC(=O)N(C)C3CCN(C)CC3)c(Cl)c2Cl)s1 (stereo not drawn) [Compound H0692, 5-(2,3-dichloro-4-(1-(3-methyl-3-(1-methylpiperidin-4-yl)ureido)ethyl)phenyl)-N-methoxy-N-methylthiophene-2-carboxamide]
24 | 197 nM | 100 nM |  | CC(NC(=O)N(C)C1CCN(C)CC1)c1ccc(-c2cnn(CCO)c2)c(Cl)c1Cl (stereo not drawn) [Compound H0693, 3-(1-(2,3-dichloro-4-(1-(2-hydroxyethyl)-1H-pyrazol-4-yl)phenyl)ethyl)-1-methyl-1-(1-methylpiperidin-4-yl)urea]
25 | 309 nM | > 30000 nM |  | COCCn1cc(-c2ccc(C(C)NC(=O)N(C)C3CCN(C)CC3)c(Cl)c2Cl)cn1 (stereo not drawn) [Compound H0694, 3-(1-(2,3-dichloro-4-(1-(2-methoxyethyl)-1H-pyrazol-4-yl)phenyl)ethyl)-1-methyl-1-(1-methylpiperidin-4-yl)urea]
26 | 78 nM | 5 nM |  | CC(NC(=O)N(C)C1CCN(C)CC1)c1ccc(-c2cncc(Br)c2)c(Cl)c1Cl (stereo not drawn) [Compound H0695, 3-(1-(4-(5-bromopyridin-3-yl)-2,3-dichlorophenyl)ethyl)-1-methyl-1-(1-methylpiperidin-4-yl)urea]
27 | 120 nM | > 30000 nM |  | CC(NC(=O)N(C)C1CCN(C)CC1)c1ccc(-c2cc(F)cc(CO)c2)c(Cl)c1Cl (stereo not drawn) [Compound H0696, 3-(1-(2,3-dichloro-3′-fluoro-5′-(hydroxymethyl)-[1,1′-biphenyl]-4-yl)ethyl)-1-methyl-1-(1-methylpiperidin-4-yl)urea]
28 | 171 nM | > 30000 nM |  | CC(NC(=O)N(C)C1CCN(C)CC1)c1ccc(-c2cncc(CC#N)c2)c(Cl)c1Cl (stereo not drawn) [Compound H0699, 3-(1-(2,3-dichloro-4-(5-(cyanomethyl)pyridin-3-yl)phenyl)ethyl)-1-methyl-1-(1-methylpiperidin-4-yl)urea]
29 | 96 nM | 1100 nM | 1940 | CC(=O)/C=C(\Cl)c1ccc(C(C)NC(=O)N(C)C2CCN(C)CC2)c(Cl)c1Cl (stereo not drawn) [Compound H0702, (Z)-3-(1-(2,3-dichloro-4-(1-chloro-3-oxobut-1-en-1-yl)phenyl)ethyl)-1-methyl-1-(1-methylpiperidin-4-yl)urea]
